From patent publication US9302999B2, “Substituted triazoles as herbicides” (E. I. DU PONT DE NEMOURS AND COMPANY, priority 2012, dated 2016)

Experiments:
soybean (Glycine max) = assay: Test C pre-/postemergence: soybean; assay type: in vivo
In short: (§1)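 Preemergence on seeds in loam/sand, postemergence on 2–18 cm (1–4-leaf) plants in peat-based medium; compounds in non-phytotoxic solvent with surfactant. After 13–15 days in greenhouse, visual rating versus controls, 0 (no effect) to 100 (complete control).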

[1] = tested on: nutsedge, yellow (yellow nutsedge, Cyperus esculentus); assay: Test C pre-/postemergence: nutsedge, yellow; assay type: in vivo
In short: as §1

Waterhemp = assay: Test C postemergence: waterhemp; assay type: in vivo; conditions: 62 g ai/ha, scale 0 to 100 (0 no effect, 100 complete control)
In short: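 Pot-grown plants in peat/vermiculite medium sprayed postemergence at 2–18 cm height (1- to 4-leaf stage). Kept in greenhouse 13 to 15 days, then visually rated against untreated controls on a 0–100 scale (0 = no effect, 100 = complete control).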

[2] = tested on: pigweed (Amaranthus retroflexus); assay: Test A pre-/postemergence: pigweed; assay type: in vivo
In short: (§2)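 Visual 0–100 injury ratings (0 no effect, 100 complete control) taken about ten days after treatment, relative to untreated controls. Preemergence treatment was a directed soil spray; postemergence plants were 2–10 cm tall at one- to two-leaf stage. Soil: loam/sand blend.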

[3] = tested on: wheat (Triticum aestivum); assay: Test A pre-/postemergence: wheat; assay type: in vivo
In short: as §2

[4] = tested on: pigweed (Amaranthus retroflexus); assay: Test C pre-/postemergence: pigweed; assay type: in vivo
In short: as §1

[5] = tested on: foxtail, giant (giant foxtail, Setaria faberii); assay: Test A pre-/postemergence: foxtail, giant; assay type: in vivo
In short: as §2

[6] = tested on: crabgrass, large (large crabgrass, Digitaria sanguinalis); assay: Test A pre-/postemergence: crabgrass, large; assay type: in vivo
In short: as §2

[7] = tested on: foxtail, giant (giant foxtail, Setaria faberii); assay: Test C pre-/postemergence: foxtail, giant; assay type: in vivo
In short: as §1

Oilseed Rape = assay: Test C preemergence: oilseed rape; assay type: in vivo, Brassica napus; conditions: 125 g ai/ha, scale 0 to 100, 0 no effect, 100 complete control
wild oat (Avena fatua) = assay: Test C pre-/postemergence: wild oat; assay type: in vivo; conditions: Postemergence
In short: as §1

[8] = Postemergence, 31 g ai/ha, scale 0 to 100 (0 no effect, 100 complete control)
[9] = Postemergence, 62 g ai/ha, scale 0 to 100 (0 no effect, 100 complete control)
[10] = Postemergence, 125 g ai/ha, scale 0 to 100, 0 no effect, 100 complete control
[11] = Preemergence, 31 g ai/ha, scale 0 (no effect) to 100 (complete control)
[12] = Preemergence, 62 g ai/ha, scale of 0 to 100, 0 is no effect, 100 is complete control
[13] = Preemergence, 125 g ai/ha, scale 0 to 100, 0 no effect, 100 complete control
[14] = Preemergence, 250 g ai/ha, scale 0 to 100, 0 no effect, 100 complete control
[15] = Postemergence, 250 g ai/ha, scale 0 to 100 (0 no effect, 100 complete control)
[16] = Postemergence, 125 g ai/ha, 0 to 100 scale, 0 is no effect, 100 is complete control
[17] = Postemergence, 500 g ai/ha, 0 to 100 scale, 0 is no effect, 100 is complete control
[18] = Preemergence, 125 g ai/ha, 0 to 100 scale where 0 is no effect and 100 is complete control
[19] = Preemergence, 500 g ai/ha, 0 to 100 scale (0 no effect, 100 complete control)
[20] = Postemergence, 250 g ai/ha, scale 0 to 100
[21] = 31 g ai/ha, scale 0 to 100 (0 no effect, 100 complete control)
[22] = 62 g ai/ha, scale 0 to 100 (0 no effect, 100 complete control)
[23] = 125 g ai/ha, scale 0 to 100, 0 no effect, 100 complete control
[24] = 250 g ai/ha, scale 0 to 100 (0 no effect, 100 complete control)

CCCc1nn(-c2ccc(C(F)(F)F)cc2)nc1Oc1ccnc(C(F)(F)F)c1 [Compound 170]
10: Plant response rating, Nutsedge, Yellow [1, 15]
65: Plant response rating, Oat, Wild (wild oat (Avena fatua); [22])
80: Plant response rating, Wheat [3, 19] | Plant response rating, Foxtail, Giant [7, 9]
55: Plant response rating, Foxtail, Giant [7, 8]
70: Plant response rating, Soybean (soybean (Glycine max); [9])
45: Plant response rating, Soybean (soybean (Glycine max); [14])
0: Plant response rating, Nutsedge, Yellow [1, 11]
5: Plant response rating, Soybean (soybean (Glycine max); [11]) | Plant response rating, Soybean (soybean (Glycine max); [12]) | Plant response rating, Nutsedge, Yellow [1, 8] | Plant response rating, Nutsedge, Yellow [1, 9] | Plant response rating, Nutsedge, Yellow [1, 10] | Plant response rating, Nutsedge, Yellow [1, 12] | Plant response rating, Nutsedge, Yellow [1, 14]
90: Plant response rating, Soybean (soybean (Glycine max); [10]) | Plant response rating, Foxtail, Giant [5, 16] | Foxtail, Giant plant response rating [5, 17] | Plant response rating, Oat, Wild (wild oat (Avena fatua); [24])
60: Plant response rating, Wheat [3, 18]
50: Wheat plant response rating [3, 17]
30: Plant response rating, Soybean (soybean (Glycine max); [8]) | Plant response rating, Oat, Wild (wild oat (Avena fatua); [21])
85: Plant response rating, Oat, Wild (wild oat (Avena fatua); [23])
100: Plant response rating, Pigweed [2, 16] | Pigweed plant response rating [2, 17] | Plant response rating, Pigweed [2, 18] | Plant response rating, Pigweed [2, 19] | Plant response rating, Pigweed [4, 8] | Plant response rating, Pigweed [4, 9] | Plant response rating, Pigweed [4, 10] | Plant response rating, Pigweed [4, 15] | Plant response rating, Pigweed [4, 11] | Plant response rating, Pigweed [4, 12] | Plant response rating, Pigweed [4, 13] | Plant response rating, Pigweed [4, 14] | Plant response rating, Foxtail, Giant [5, 18] | Plant response rating, Foxtail, Giant [5, 19] | Plant response rating, Crabgrass, Large [6, 16] | Crabgrass, Large plant response rating [6, 17] | Plant response rating, Crabgrass, Large [6, 18] | Plant response rating, Crabgrass, Large [6, 19] | Plant response rating, Foxtail, Giant [7, 12] | Plant response rating, Foxtail, Giant [7, 13] | Plant response rating, Foxtail, Giant [7, 14] | Plant response rating, Oilseed Rape (Oilseed Rape)
20: Plant response rating, Soybean (soybean (Glycine max); [13])
40: Plant response rating, Wheat [3, 16]
98: Plant response rating, Waterhemp (Waterhemp) | Plant response rating, Foxtail, Giant [7, 10] | Plant response rating, Foxtail, Giant [7, 20] | Plant response rating, Foxtail, Giant [7, 11]

CCc1nn(-c2ccc(F)c(F)c2)nc1Oc1ccnc(C(F)(F)F)c1 [Compound 171]
100: Plant response rating, Pigweed [2, 16] | Pigweed plant response rating [2, 17] | Plant response rating, Pigweed [2, 18] | Plant response rating, Pigweed [2, 19] | Plant response rating, Pigweed [4, 12] | Plant response rating, Pigweed [4, 13] | Plant response rating, Pigweed [4, 14] | Plant response rating, Foxtail, Giant [5, 18] | Plant response rating, Foxtail, Giant [5, 19] | Crabgrass, Large plant response rating [6, 17] | Plant response rating, Crabgrass, Large [6, 18] | Plant response rating, Crabgrass, Large [6, 19] | Plant response rating, Foxtail, Giant [7, 12] | Plant response rating, Foxtail, Giant [7, 13] | Plant response rating, Foxtail, Giant [7, 14]
35: Plant response rating, Soybean (soybean (Glycine max); [9]) | Plant response rating, Foxtail, Giant [7, 9]
50: Plant response rating, Oilseed Rape (Oilseed Rape)
80: Plant response rating, Foxtail, Giant [5, 16]
75: Plant response rating, Waterhemp (Waterhemp)
90: Plant response rating, Pigweed [4, 9] | Plant response rating, Pigweed [4, 10] | Foxtail, Giant plant response rating [5, 17] | Plant response rating, Crabgrass, Large [6, 16]
20: Plant response rating, Oat, Wild (wild oat (Avena fatua); [24])
70: Plant response rating, Pigweed [4, 8] | Plant response rating, Foxtail, Giant [7, 20]
30: Plant response rating, Wheat [3, 16]
10: Plant response rating, Nutsedge, Yellow [1, 10] | Plant response rating, Nutsedge, Yellow [1, 15] | Plant response rating, Wheat [3, 18] | Plant response rating, Oat, Wild (wild oat (Avena fatua); [23])
98: Plant response rating, Pigweed [4, 15] | Plant response rating, Foxtail, Giant [7, 11]
5: Plant response rating, Soybean (soybean (Glycine max); [13]) | Plant response rating, Nutsedge, Yellow [1, 8] | Plant response rating, Nutsedge, Yellow [1, 9] | Plant response rating, Oat, Wild (wild oat (Avena fatua); [21]) | Plant response rating, Oat, Wild (wild oat (Avena fatua); [22])
25: Plant response rating, Soybean (soybean (Glycine max); [8]) | Plant response rating, Foxtail, Giant [7, 8]
60: Plant response rating, Wheat [3, 19] | Plant response rating, Pigweed [4, 11]
40: Plant response rating, Soybean (soybean (Glycine max); [10]) | Wheat plant response rating [3, 17]
55: Plant response rating, Foxtail, Giant [7, 10]
0: Plant response rating, Soybean (soybean (Glycine max); [11]) | Plant response rating, Soybean (soybean (Glycine max); [12]) | Plant response rating, Nutsedge, Yellow [1, 11] | Plant response rating, Nutsedge, Yellow [1, 12] | Plant response rating, Nutsedge, Yellow [1, 13] | Plant response rating, Nutsedge, Yellow [1, 14]

CCCc1nn(-c2ccc(F)c(F)c2)nc1Oc1ccnc(C(F)(F)F)c1 [Compound 172]
20: Plant response rating, Oat, Wild (wild oat (Avena fatua); [22])
90: Plant response rating, Foxtail, Giant [5, 16] | Foxtail, Giant plant response rating [5, 17] | Plant response rating, Crabgrass, Large [6, 16]
0: Plant response rating, Nutsedge, Yellow [1, 11]
35: Plant response rating, Soybean (soybean (Glycine max); [8]) | Plant response rating, Soybean (soybean (Glycine max); [14]) | Plant response rating, Foxtail, Giant [7, 8] | Plant response rating, Foxtail, Giant [7, 9]
50: Wheat plant response rating [3, 17] | Plant response rating, Wheat [3, 18]
70: Plant response rating, Wheat [3, 19]
60: Plant response rating, Soybean (soybean (Glycine max); [10]) | Plant response rating, Soybean (soybean (Glycine max); [15])
95: Plant response rating, Waterhemp (Waterhemp) | Plant response rating, Foxtail, Giant [7, 20]
15: Plant response rating, Nutsedge, Yellow [1, 10] | Plant response rating, Nutsedge, Yellow [1, 15] | Plant response rating, Oat, Wild (wild oat (Avena fatua); [21])
45: Plant response rating, Soybean (soybean (Glycine max); [9]) | Plant response rating, Oat, Wild (wild oat (Avena fatua); [23])
40: Plant response rating, Wheat [3, 16]
10: Plant response rating, Soybean (soybean (Glycine max); [12]) | Plant response rating, Soybean (soybean (Glycine max); [13]) | Plant response rating, Nutsedge, Yellow [1, 8] | Plant response rating, Nutsedge, Yellow [1, 9]
80: Plant response rating, Foxtail, Giant [7, 10] | Plant response rating, Oat, Wild (wild oat (Avena fatua); [24])
100: Plant response rating, Pigweed [2, 16] | Pigweed plant response rating [2, 17] | Plant response rating, Pigweed [2, 18] | Plant response rating, Pigweed [2, 19] | Plant response rating, Pigweed [4, 11] | Plant response rating, Pigweed [4, 12] | Plant response rating, Pigweed [4, 13] | Plant response rating, Pigweed [4, 14] | Plant response rating, Foxtail, Giant [5, 18] | Plant response rating, Foxtail, Giant [5, 19] | Crabgrass, Large plant response rating [6, 17] | Plant response rating, Crabgrass, Large [6, 18] | Plant response rating, Crabgrass, Large [6, 19] | Plant response rating, Foxtail, Giant [7, 11] | Plant response rating, Foxtail, Giant [7, 12] | Plant response rating, Foxtail, Giant [7, 13] | Plant response rating, Foxtail, Giant [7, 14]
5: Plant response rating, Soybean (soybean (Glycine max); [11]) | Plant response rating, Nutsedge, Yellow [1, 12] | Plant response rating, Nutsedge, Yellow [1, 13] | Plant response rating, Nutsedge, Yellow [1, 14]
98: Plant response rating, Pigweed [4, 8] | Plant response rating, Pigweed [4, 9] | Plant response rating, Pigweed [4, 10] | Plant response rating, Pigweed [4, 15] | Plant response rating, Oilseed Rape (Oilseed Rape)
